Experimental data published in ChEMBL document CHEMBL4371039, “Synthesis and biological evaluation of novel analogues of Gly-l-Pro-l-Glu (GPE) as neuroprotective agents” (Bioorg Med Chem Lett, 2019).
The source made the active and inactive calls. No cut-off for these calls is given here.

Columns and labels:
THP-1 [1] = test: Antiinflammatory activity in PMA-differentiated human THP1 cells assessed as reduction in INFgamma/LPS-induced IL-8 expression at 10 uM preincubated for 2 hrs followed by INFgamma/LPS addition and measured after 6 hrs by Trizol reagent based RT-PCR analysis; type: functional, cell-based
THP-1 [2] = test: Antiinflammatory activity in PMA-differentiated human THP1 cells assessed as reduction in MCP1 expression at 10 uM preincubated for 4 hrs followed by PMA addition and measured after 20 hrs by Trizol reagent based RT-PCR analysis; type: functional, cell-based
THP-1 [3] = test: Antiinflammatory activity in PMA-differentiated human THP1 cells assessed as reduction in IL-18 expression at 10 uM preincubated for 4 hrs followed by PMA addition and measured after 20 hrs by Trizol reagent based RT-PCR analysis; type: functional, cell-based
THP-1 [4] = test: Antiinflammatory activity in human THP1 cells assessed as reduction in Abeta (25 to 35 residues)-induced IL18 expression at 10 uM preincubated for 2 hrs followed by Abeta (25 to 35 residues) addition and measured after 24 hrs by Trizol reagent based RT-PCR analysis; type: functional, cell-based
THP-1 [5] = test: Antiinflammatory activity in PMA-differentiated human THP1 cells assessed as reduction in TNFalpha expression at 10 uM preincubated for 4 hrs followed by PMA addition and measured after 20 hrs by Trizol reagent based RT-PCR analysis; type: functional, cell-based
THP-1 [6] = test: Antiinflammatory activity in PMA-differentiated human THP1 cells assessed as reduction in INFgamma/LPS-induced IL-1beta expression at 10 uM preincubated for 2 hrs followed by INFgamma/LPS addition and measured after 6 hrs by Trizol reagent based RT-PCR analysis; type: functional, cell-based
THP-1 [7] = test: Immunostimulatory activity in PMA-differentiated human THP1 cells assessed as increase in IL-18 expression at 10 uM preincubated for 4 hrs followed by PMA addition and measured after 20 hrs by Trizol reagent based RT-PCR analysis; type: functional, cell-based
THP-1 [8] = test: Antiinflammatory activity in PMA-differentiated human THP1 cells assessed as reduction in IL4-induced IL-10 expression at 10 uM preincubated for 2 hrs followed by IL4 addition and measured after 6 hrs by Trizol reagent based RT-PCR analysis; type: functional, cell-based
THP-1 [9] = test: Antiinflammatory activity in PMA-differentiated human THP1 cells assessed as reduction in IL-1beta expression at 10 uM preincubated for 4 hrs followed by PMA addition and measured after 20 hrs by Trizol reagent based RT-PCR analysis; type: functional, cell-based
THP-1 [10] = test: Antiinflammatory activity in PMA-differentiated human THP1 cells assessed as reduction in IL4-induced CCL18 expression at 10 uM preincubated for 2 hrs followed by IL4 addition and measured after 6 hrs by Trizol reagent based RT-PCR analysis; type: functional, cell-based
THP-1 [11] = test: Antiinflammatory activity in human THP1 cells assessed as reduction in Abeta (25 to 35 residues)-induced TNFalpha expression at 10 uM preincubated for 2 hrs followed by Abeta (25 to 35 residues) addition and measured after 24 hrs by Trizol reagent based RT-PCR analysis; type: functional, cell-based
THP-1 [12] = test: Antiinflammatory activity in PMA-differentiated human THP1 cells assessed as reduction in IL4-induced CCL22 expression at 10 uM preincubated for 2 hrs followed by IL4 addition and measured after 6 hrs by Trizol reagent based RT-PCR analysis; type: functional, cell-based
THP-1 [13] = test: Immunostimulatory activity in PMA-differentiated human THP1 cells assessed as increase in MCP1 expression at 10 uM preincubated for 4 hrs followed by PMA addition and measured after 20 hrs by Trizol reagent based RT-PCR analysis; type: functional, cell-based
THP-1 [14] = test: Immunostimulatory activity in PMA-differentiated human THP1 cells assessed as increase in IL-1beta expression at 10 uM preincubated for 4 hrs followed by PMA addition and measured after 20 hrs by Trizol reagent based RT-PCR analysis; type: functional, cell-based
THP-1 [15] = test: Immunostimulatory activity in PMA-differentiated human THP1 cells assessed as increase in TNFalpha expression at 10 uM preincubated for 4 hrs followed by PMA addition and measured after 20 hrs by Trizol reagent based RT-PCR analysis; type: functional, cell-based
THP-1 [16] = test: Antiinflammatory activity in human THP1 cells assessed as reduction in LPS-induced IL-1beta expression at 10 uM preincubated for 2 hrs followed by LPS addition and measured after 24 hrs by Trizol reagent based RT-PCR analysis; type: functional, cell-based
THP-1 [17] = test: Antiinflammatory activity in human THP1 cells assessed as reduction in Abeta (25 to 35 residues)-induced MCP1 expression at 10 uM preincubated for 2 hrs followed by Abeta (25 to 35 residues) addition and measured after 24 hrs by Trizol reagent based RT-PCR analysis; type: functional, cell-based
THP-1 [18] = test: Antiinflammatory activity in human THP1 cells assessed as reduction in LPS-induced IL18 expression at 10 uM preincubated for 2 hrs followed by LPS addition and measured after 24 hrs by Trizol reagent based RT-PCR analysis; type: functional, cell-based
[19] = Half life in human plasma; type: ADME, cell-free
THP-1 [20] = test: Immunostimulatory activity in PMA-differentiated human THP1 cells assessed as increase in LPS-induced IL-4 expression at 10 uM preincubated for 2 hrs followed by LPS addition and measured after 24 hrs by Trizol reagent based RT-PCR analysis; type: functional, cell-based
THP-1 [21] = test: Immunostimulatory activity in PMA-differentiated human THP1 cells assessed as increase in LPS-induced IL-10 expression at 10 uM preincubated for 2 hrs followed by LPS addition and measured after 24 hrs by Trizol reagent based RT-PCR analysis; type: functional, cell-based
[22] = Solubility of the compound in water; type: physicochemical; settings: buffer
THP-1 [23] = test: Antiinflammatory activity in PMA-differentiated human THP1 cells assessed as reduction in LPS-induced IL-1beta expression at 10 uM preincubated for 2 hrs followed by LPS addition and measured after 24 hrs by Trizol reagent based RT-PCR analysis; type: functional, cell-based
THP-1 [24] = test: Antiinflammatory activity in PMA-differentiated human THP1 cells assessed as reduction in LPS-induced IL18 expression at 10 uM preincubated for 2 hrs followed by LPS addition and measured after 24 hrs by Trizol reagent based RT-PCR analysis; type: functional, cell-based
THP-1 [25] = test: Neuroprotective activity against H2O2-induced cell death in human THP1 cells assessed as cell survival at 10 uM preincubated for 2 hrs followed by H2O2 addition and measured after 24 hrs by MTT assay (reference value: 43%); type: functional; settings: read-out: Survival
THP-1 [26] = test: Cytotoxicity against human THP1 cells assessed as effect on cell viability up to 400 uM measured after 6 to 48 hrs by MTT assay; type: cell-based
THP-1 [27] = test: Antiinflammatory activity in human THP1 cells assessed as reduction in Abeta (25 to 35 residues)-induced IL-1beta expression at 10 uM preincubated for 2 hrs followed by Abeta (25 to 35 residues) addition and measured after 24 hrs by Trizol reagent based RT-PCR analysis; type: functional, cell-based
THP-1 [28] = test: Antiinflammatory activity in human THP1 cells assessed as reduction in LPS-induced TNFalpha expression at 10 uM preincubated for 2 hrs followed by LPS addition and measured after 24 hrs by Trizol reagent based RT-PCR analysis; type: functional, cell-based
THP-1 [29] = test: Neuroprotective activity against Abeta (25 to 35 residues)-induced cell death in human THP1 cells assessed as cell survival at 10 uM preincubated for 2 hrs followed by Abeta (25 to 35 residues) addition and measured after 24 hrs by MTT assay (reference value: 40%); type: functional; settings: read-out: Survival

**Q.** What does the source list for `NCCN1CCC[C@H]1C(=O)N[C@@H](CCC(=O)O)C(=O)O`?
**A.** Activity (THP-1 [1]): Active; Activity (THP-1 [2]): Active; Activity (THP-1 [3]): Active; Activity (THP-1 [4]): inactive; Activity (THP-1 [5]): Active; Activity (THP-1 [6]): Active; Activity (THP-1 [7]): Active; Activity (THP-1 [8]): inactive; Activity (THP-1 [9]): Active; Activity (THP-1 [10]): inactive; Activity (THP-1 [11]): Active; Activity (THP-1 [12]): inactive; Activity (THP-1 [13]): Active; Activity (THP-1 [14]): Active; Activity (THP-1 [15]): Active; Activity (THP-1 [16]): Active; Activity (THP-1 [17]): Active; Activity (THP-1 [18]): inactive

**Q.** Which half-life [19] does the source give for `NCC(=O)N1CCC[C@H]1C(=O)N[C@@H](CCC(=O)O)C(=O)O.O=C(O)C(F)(F)F.O=C(O)C(F)(F)F` here?
**A.** The half-life was 4.5 h.

**Q.** And the Activity (THP-1 [2])?
**A.** The Activity was “Active”.

**Q.** And the Activity (THP-1 [20])?
**A.** The Activity was “Active”.

**Q.** And the Activity (THP-1 [3])?
**A.** The Activity was “Active”.

**Q.** And the Activity (THP-1 [4])?
**A.** The Activity was “inactive”.

**Q.** What about the Activity (THP-1 [21]) of the same compound?
**A.** The Activity was “Active”.

**Q.** What about the solubility [22] of the same compound?
**A.** The solubility was “Soluble”.

**Q.** And the Activity (THP-1 [5])?
**A.** Its Activity is “Active”.

**Q.** And the Activity (THP-1 [23])?
**A.** The Activity was “Active”.

**Q.** What about the Activity (THP-1 [24]) of the same compound?
**A.** Its Activity is “Active”.

**Q.** What about the Activity (THP-1 [9]) of the same compound?
**A.** The Activity was “Active”.

**Q.** And the viability at 10 µM (THP-1 [25])?
**A.** The viability at 10 µM was 100%.

**Q.** What about the Activity (THP-1 [11]) of the same compound?
**A.** Its Activity is “inactive”.

**Q.** What about the Activity (THP-1 [26]) of the same compound?
**A.** Its Activity is “Non-Toxic”.

**Q.** And the Activity (THP-1 [16])?
**A.** Its Activity is “Active”.

**Q.** And the Activity (THP-1 [27])?
**A.** The Activity was “Active”.

**Q.** And the Activity (THP-1 [28])?
**A.** Its Activity is “Active”.

**Q.** What about the Activity (THP-1 [18]) of the same compound?
**A.** Its Activity is “inactive”.

**Q.** Which results are given for `NCCN1CCC[C@H]1C(=O)N[C@@H](CCC(=O)O)C(=O)O.O=C(O)C(F)(F)F`?
**A.** half-life [19]: 6.6 h; solubility [22]: Soluble; viability at 10 µM (THP-1 [29]): 76%; Activity (THP-1 [26]): Non-Toxic

**Q.** For `NCCN1CCC[C@H]1C(=O)N[C@@H](CCC(=O)O)C(=O)O.O=C(O)C(F)(F)F.O=C(O)C(F)(F)F`, which half-life [19] is on record?
**A.** Its half-life is 11.8 h.

**Q.** And the solubility [22]?
**A.** Its solubility is “Soluble”.

**Q.** What about the viability at 10 µM (THP-1 [25]) of the same compound?
**A.** Its viability at 10 µM is 90%.

**Q.** What about the Activity (THP-1 [26]) of the same compound?
**A.** Its Activity is “Non-Toxic”.
